# Measured values reported in ChEMBL document CHEMBL4622958, “Tetrazoles as anticancer agents: A review on synthetic strategies, mechanism of action and SAR studies” (Bioorg Med Chem, 2020).
# Structures can show the parent of a compound that is named as a salt.
# Experiments:
# MCF7 [1] = assay: Growth inhibition of human MCF7 cells after 48 hrs by MTT assay; format: functional; details: MCF7, 48 h
# HOP-62 = assay: Growth inhibition of human HOP62 cells after 48 hrs by MTT assay; format: functional; details: HOP-62, 48 h
# MCF7 [2] = assay: Cytotoxicity against human MCF7 cells assessed as reduction in cell viability after 48 hrs by MTT assay; format: functional, cell-based; details: MCF7, 48 h
# HeLa = assay: Cytotoxicity against human HeLa cells assessed as reduction in cell viability after 48 hrs by MTT assay; format: functional, cell-based
# CCRF-CEM [3] = assay: Cytotoxicity against human CCRF-CEM cells assessed as reduction in cell viability at 10 uM after 24 hrs by MTT assay relative to control; format: functional; details: values are per cent of control
# CCRF-CEM [4] = assay: Cytotoxicity against human CCRF-CEM cells assessed as reduction in cell viability at 25 uM after 24 hrs by MTT assay relative to control; format: functional; details: values are per cent of control
# CCRF-CEM [5] = assay: Cytotoxicity against human CCRF-CEM cells assessed as reduction in cell viability at 50 uM after 24 hrs by MTT assay relative to control; format: functional; details: values are per cent of control
# CCRF-CEM [6] = assay: Cytotoxicity against human CCRF-CEM cells assessed as reduction in cell viability at 10 uM after 48 hrs by MTT assay relative to control; format: functional; details: values are per cent of control
# CCRF-CEM [7] = assay: Cytotoxicity against human CCRF-CEM cells assessed as reduction in cell viability at 25 uM after 48 hrs by MTT assay relative to control; format: functional; details: values are per cent of control
# CCRF-CEM [8] = assay: Cytotoxicity against human CCRF-CEM cells assessed as reduction in cell viability at 50 uM after 48 hrs by MTT assay relative to control; format: functional; details: values are per cent of control
# U2OS [9] = assay: Cytotoxicity against human U2OS cells assessed as reduction in cell viability at 20 uM by CellTiter 96 non-radioactive cell proliferation assay relative to control; format: functional
# U2OS [10] = assay: Cytotoxicity against human U2OS cells assessed as reduction in cell viability by CellTiter 96 non-radioactive cell proliferation assay; format: functional, cell-based
# HT-29 = assay: Anticancer activity against human HT-29 cells after 48 hrs by MTT assay; format: functional, cell-based; details: HT-29, 48 h
# HepG2 [11] = assay: Anticancer activity against human HepG2 cells after 48 hrs by MTT assay; format: functional, cell-based; details: HepG2, 48 h
# MCF7 [12] = assay: Anticancer activity against human MCF7 cells after 48 hrs by MTT assay; format: functional, cell-based; details: MCF7, 48 h
# A549 = assay: Anticancer activity against human A549 cells after 48 hrs by MTT assay; format: functional, cell-based; details: A549, 48 h
# HUVEC = assay: Cytotoxicity against HUVEC assessed as reduction in cell viability; format: cell-based; details: Homo sapiens
# [13] = Half life in human liver microsome; format: ADME; details: liver microsomes
# HepG2 [14] = assay: Anticancer activity against human HepG2 cells after 48 hrs by SRB assay; details: HepG2, 48 h
compound,measurement,setting,value
COc1cccc2c1C(=O)c1c(O)c3c(c(O)c1C2=O)C[C@@](O)(C(=O)CO)C[C@@H]3O[C@H]1C[C@H](N)[C@H](O)[C@H](C)O1 [DOXORUBICIN HYDROCHLORIDE],GI50,MCF7 [1],170 µM
same,GI50,HOP-62,0.14 µM
Fc1ccc(C#Cc2ccc3nc(/C=C/c4ccccc4)n4nnnc4c3c2)cc1,IC50,MCF7 [2],> 200 µM
same,IC50,HeLa,> 200 µM
Fc1ccc(-c2ccc3nc(/C=C/c4ccccc4)n4nnnc4c3c2)cc1,IC50,MCF7 [2],> 200 µM
same,IC50,HeLa,> 200 µM
Brc1c(Br)c(Br)c2c(ncn2CCCn2nnnc2-c2ccccc2)c1Br,"viability, % of control at 10 µM",CCRF-CEM [3],67%
same,"viability, % of control at 25 µM",CCRF-CEM [4],4%
same,"viability, % of control at 50 µM",CCRF-CEM [5],2%
same,"viability, % of control at 10 µM",CCRF-CEM [6],57%
same,"viability, % of control at 25 µM",CCRF-CEM [7],0%
same,"viability, % of control at 50 µM",CCRF-CEM [8],0%
N[C@@H](Cc1ccc(N(CCCl)CCCl)cc1)C(=O)O,IC50,MCF7 [2],61 µM
same,IC50,HeLa,88.9 µM
Fc1ccc(/C=C/c2nc3ccc(Br)cc3c3nnnn23)cc1,IC50,MCF7 [2],21 µM
same,IC50,HeLa,22.4 µM
Clc1ccccc1-c1nnnn1CCCn1cnc2c(Br)c(Br)c(Br)c(Br)c21,"viability, % of control at 10 µM",CCRF-CEM [3],65%
same,"viability, % of control at 25 µM",CCRF-CEM [4],1%
same,"viability, % of control at 50 µM",CCRF-CEM [5],2%
same,"viability, % of control at 10 µM",CCRF-CEM [6],51%
same,"viability, % of control at 25 µM",CCRF-CEM [7],1%
same,"viability, % of control at 50 µM",CCRF-CEM [8],0%
CC(C)(C)n1nnc([C@H](CCCNC(=N)CCl)NC(=O)c2ccc(-c3ccccc3)cc2)n1,Activity,U2OS [9],0%
same,EC50,U2OS [10],10 µM
CNC(=O)c1cc(Oc2ccc(NC(=O)Nc3ccc(Cl)c(C(F)(F)F)c3)cc2)ccn1 [SORAFENIB],IC50,HT-29,10.1 µM
same,IC50,HepG2 [11],9.64 µM
same,IC50,MCF7 [12],10.9 µM
same,IC50,A549,11.2 µM
Brc1ccc2nc(/C=C/c3ccccc3)n3nnnc3c2c1,IC50,MCF7 [2],9.6 µM
same,IC50,HeLa,7.3 µM
O=[N+]([O-])c1cccc(-c2nnnn2-c2ccc(-c3nc4ccccc4o3)cc2)c1,GI50,HOP-62,2.9 µM
Brc1c(Br)c(Br)c2c(ncn2CCCn2nnc(-c3ccccc3)n2)c1Br,"viability, % of control at 10 µM",CCRF-CEM [3],106%
same,"viability, % of control at 25 µM",CCRF-CEM [4],73%
same,"viability, % of control at 50 µM",CCRF-CEM [5],4%
same,"viability, % of control at 10 µM",CCRF-CEM [6],105%
same,"viability, % of control at 25 µM",CCRF-CEM [7],64%
same,"viability, % of control at 50 µM",CCRF-CEM [8],0%
CCC(C)n1ncn(-c2ccc(N3CCN(c4ccc(OC[C@@H]5CO[C@@](Cn6ncnn6)(c6ccc(Cl)cc6Cl)O5)cc4)CC3)cc2)c1=O (some centres undefined),IC50,HUVEC,0.124 µM
O=[N+]([O-])c1ccc(-c2nnnn2-c2ccc(-c3nc4ccccc4o3)cc2)cc1,GI50,HOP-62,1.22 µM
O=C(NC(=O)Nc1ccc(Oc2ccnc(-n3cnnn3)c2)c(F)c1)Nc1cccc(F)c1,IC50,HT-29,20.6 µM
same,IC50,HepG2 [11],0.55 µM
same,IC50,MCF7 [12],7.76 µM
same,IC50,A549,6.25 µM
same,half-life,[13],2.28 h
CCC(C)n1ncn(-c2ccc(N3CCN(c4ccc(OC[C@@H]5CO[C@@](Cn6nnnc6-c6ccccc6)(c6ccc(Cl)cc6Cl)O5)cc4)CC3)cc2)c1=O (some centres undefined),IC50,HUVEC,0.119 µM
O=C(NC(=O)Nc1ccc(F)cc1F)Nc1ccc(Oc2ccnc(-n3cnnn3)c2)c(F)c1,IC50,HT-29,5.97 µM
same,IC50,HepG2 [11],5.72 µM
same,IC50,MCF7 [12],9.88 µM
same,IC50,A549,10.6 µM
same,half-life,[13],9.17 h
CCOC(=O)Cn1nnnc1/C(=C/c1ccc(Cl)cc1)NC(=O)c1ccccc1,IC50,MCF7 [2],40.2 µM
COc1cccc2c1C(=O)c1c(O)c3c(c(O)c1C2=O)C[C@@](O)(C(=O)CO)C[C@@H]3O[C@H]1C[C@H](N)[C@H](O)[C@H](C)O1 [DOXORUBICIN],IC50,HepG2 [14],4000 µg/mL
COc1cc(-c2nnnn2-c2ccc(-c3nc4ccccc4o3)cc2)cc(OC)c1OC,GI50,HOP-62,1.67 µM
CCOC(=O)Cn1nnnc1/C(=C/c1ccc(OC)cc1)NC(=O)c1ccccc1,IC50,MCF7 [2],44.6 µM
CCOC(=O)Cn1nnnc1/C(=C/c1ccc(F)cc1)NC(=O)c1ccccc1,IC50,MCF7 [2],47.9 µM
CC(C)(C)n1nnc([C@H](CCCNC(=N)CBr)NC(=O)c2ccc(-c3ccccc3)cc2)n1,Activity,U2OS [9],50%
same,EC50,U2OS [10],45 µM
CCC(C)n1ncn(-c2ccc(N3CCN(c4ccc(OC[C@@H]5CO[C@@](Cn6nnnc6C)(c6ccc(Cl)cc6Cl)O5)cc4)CC3)cc2)c1=O (some centres undefined),IC50,HUVEC,0.101 µM
Clc1ccccc1-c1nnn(CCCn2cnc3c(Br)c(Br)c(Br)c(Br)c32)n1,"viability, % of control at 10 µM",CCRF-CEM [3],102%
same,"viability, % of control at 25 µM",CCRF-CEM [4],96%
same,"viability, % of control at 50 µM",CCRF-CEM [5],68%
same,"viability, % of control at 10 µM",CCRF-CEM [6],104%
same,"viability, % of control at 25 µM",CCRF-CEM [7],89%
same,"viability, % of control at 50 µM",CCRF-CEM [8],42%
